Measured values from the NIST ThermoML archive (doi:10.1021/je900596d).

Conditions: Vibrating tube method

FC(F)=C(F)C(F)(F)F [hexafluoropropene]
Conditions | mass density [kg/m3]
348.12 K, 1780.6 kPa, Fluid (supercritical or subcritical phases) | 126.81
348.12 K, 1804.3 kPa, Fluid (supercritical or subcritical phases) | 129.36
348.12 K, 1829.7 kPa, Fluid (supercritical or subcritical phases) | 132.19
348.12 K, 1851.6 kPa, Fluid (supercritical or subcritical phases) | 134.57
348.12 K, 1872.9 kPa, Fluid (supercritical or subcritical phases) | 137.09
348.12 K, 1894.9 kPa, Fluid (supercritical or subcritical phases) | 139.69
348.12 K, 1917.6 kPa, Fluid (supercritical or subcritical phases) | 142.36
348.12 K, 1939.9 kPa, Fluid (supercritical or subcritical phases) | 144.88
348.12 K, 1967.9 kPa, Fluid (supercritical or subcritical phases) | 148.35
348.12 K, 1992.7 kPa, Fluid (supercritical or subcritical phases) | 151.5
348.12 K, 2016.1 kPa, Fluid (supercritical or subcritical phases) | 154.47
348.12 K, 2044.1 kPa, Fluid (supercritical or subcritical phases) | 158.31
348.12 K, 2068.5 kPa, Fluid (supercritical or subcritical phases) | 161.51
348.12 K, 2096.5 kPa, Fluid (supercritical or subcritical phases) | 165.49
348.12 K, 2143.5 kPa, Fluid (supercritical or subcritical phases) | 172.38
348.12 K, 2192.1 kPa, Fluid (supercritical or subcritical phases) | 180.05
348.12 K, 2212.1 kPa, Fluid (supercritical or subcritical phases) | 183.28
348.12 K, 2238.5 kPa, Fluid (supercritical or subcritical phases) | 187.82
348.12 K, 2266 kPa, Fluid (supercritical or subcritical phases) | 192.69
348.12 K, 2288.1 kPa, Fluid (supercritical or subcritical phases) | 196.82
348.12 K, 2310.2 kPa, Fluid (supercritical or subcritical phases) | 201.01
348.12 K, 2332.6 kPa, Fluid (supercritical or subcritical phases) | 205.6
348.12 K, 2354 kPa, Fluid (supercritical or subcritical phases) | 210.08
348.12 K, 2375.5 kPa, Fluid (supercritical or subcritical phases) | 214.74
348.12 K, 2397.3 kPa, Fluid (supercritical or subcritical phases) | 219.85
348.12 K, 2419.9 kPa, Fluid (supercritical or subcritical phases) | 225.48
348.12 K, 2442.3 kPa, Fluid (supercritical or subcritical phases) | 231.34
348.12 K, 2470.6 kPa, Fluid (supercritical or subcritical phases) | 239.59
348.12 K, 2472.8 kPa, Fluid (supercritical or subcritical phases) | 240.22
348.12 K, 2475.3 kPa, Fluid (supercritical or subcritical phases) | 241.04
348.12 K, 2478 kPa, Fluid (supercritical or subcritical phases) | 241.76
348.12 K, 2479.4 kPa, Fluid (supercritical or subcritical phases) | 242.23
348.12 K, 2481.5 kPa, Fluid (supercritical or subcritical phases) | 242.88
348.12 K, 2484.1 kPa, Fluid (supercritical or subcritical phases) | 243.75
348.12 K, 2485.5 kPa, Fluid (supercritical or subcritical phases) | 244.17
348.12 K, 2487.8 kPa, Fluid (supercritical or subcritical phases) | 244.94
348.12 K, 2490.1 kPa, Fluid (supercritical or subcritical phases) | 245.8
348.12 K, 2493.8 kPa, Fluid (supercritical or subcritical phases) | 247.53
348.12 K, 2495.7 kPa, Fluid (supercritical or subcritical phases) | 248.38
348.12 K, 2497.4 kPa, Fluid (supercritical or subcritical phases) | 248.67
348.12 K, 2498.8 kPa, Fluid (supercritical or subcritical phases) | 250.42
348.12 K, 2499.7 kPa, Fluid (supercritical or subcritical phases) | 251.97
348.12 K, 2500.9 kPa, Fluid (supercritical or subcritical phases) | 254.86
348.12 K, 2501.9 kPa, Fluid (supercritical or subcritical phases) | 260.28
348.12 K, 2502.8 kPa, Fluid (supercritical or subcritical phases) | 268.19
348.16 K, 2506.4 kPa, Liquid | 959.6
348.16 K, 2507.7 kPa, Liquid | 959.78
348.16 K, 2509 kPa, Liquid | 959.97
348.16 K, 2510.7 kPa, Liquid | 960.12
348.16 K, 2511.1 kPa, Liquid | 960.28
348.16 K, 2513.5 kPa, Liquid | 960.38
348.16 K, 2516.3 kPa, Liquid | 960.72
348.16 K, 2517 kPa, Liquid | 960.83
348.16 K, 2518.6 kPa, Liquid | 961.02
348.16 K, 2520.1 kPa, Liquid | 961.1
348.16 K, 2520.8 kPa, Liquid | 961.16
348.16 K, 2522.6 kPa, Liquid | 961.35
348.16 K, 2523.5 kPa, Liquid | 961.75
348.16 K, 2525.5 kPa, Liquid | 961.71
348.16 K, 2526.1 kPa, Liquid | 961.8
348.16 K, 2530 kPa, Liquid | 962.41
348.16 K, 2532.2 kPa, Liquid | 962.81
348.16 K, 2535.5 kPa, Liquid | 963.11
348.16 K, 2538.4 kPa, Liquid | 963.1
348.16 K, 2542.3 kPa, Liquid | 963.6
348.16 K, 2544.8 kPa, Liquid | 963.72
348.16 K, 2547.3 kPa, Liquid | 963.99
348.16 K, 2549.5 kPa, Liquid | 964.46
348.16 K, 2554.5 kPa, Liquid | 964.95
348.16 K, 2561 kPa, Liquid | 965.66
348.16 K, 2568.5 kPa, Liquid | 966.39
348.16 K, 2574.8 kPa, Liquid | 967.01
348.16 K, 2581.7 kPa, Liquid | 967.68
348.16 K, 2588.5 kPa, Liquid | 968.36
348.16 K, 2595 kPa, Liquid | 968.97
348.16 K, 2601.2 kPa, Liquid | 969.69
348.16 K, 2614.7 kPa, Liquid | 970.9
348.16 K, 2627.6 kPa, Liquid | 972.33
348.16 K, 2633.8 kPa, Liquid | 972.9
348.16 K, 2640.7 kPa, Liquid | 973.53
348.16 K, 2654.7 kPa, Liquid | 974.76
348.16 K, 2667.6 kPa, Liquid | 976.02
348.16 K, 2680.1 kPa, Liquid | 977.1
348.16 K, 2693.1 kPa, Liquid | 978.18
348.16 K, 2706.1 kPa, Liquid | 979.32
348.16 K, 2718.8 kPa, Liquid | 980.44
348.16 K, 2730.9 kPa, Liquid | 981.5
348.16 K, 2744.5 kPa, Liquid | 982.55
348.16 K, 2756.9 kPa, Liquid | 983.71
348.16 K, 2770.2 kPa, Liquid | 984.59
348.16 K, 2782.7 kPa, Liquid | 985.9
348.16 K, 2796.7 kPa, Liquid | 986.93
348.16 K, 2809.4 kPa, Liquid | 987.97
348.16 K, 2835.1 kPa, Liquid | 989.69
348.16 K, 2847.5 kPa, Liquid | 990.63
348.16 K, 2861.9 kPa, Liquid | 991.98
348.16 K, 2875.4 kPa, Liquid | 992.69
348.16 K, 2888.5 kPa, Liquid | 993.69
348.16 K, 2902.4 kPa, Liquid | 994.77
348.16 K, 2923.1 kPa, Liquid | 996.32
348.16 K, 2943.1 kPa, Liquid | 997.63
348.16 K, 2969.1 kPa, Liquid | 999.28
348.16 K, 2994.8 kPa, Liquid | 1001.06
348.16 K, 3015.4 kPa, Liquid | 1002.63
348.16 K, 3036.5 kPa, Liquid | 1004.18
348.16 K, 3061.5 kPa, Liquid | 1005.54
348.16 K, 3081.9 kPa, Liquid | 1006.76
348.16 K, 3102.2 kPa, Liquid | 1008.02
348.16 K, 3129.1 kPa, Liquid | 1009.6
348.16 K, 3135.2 kPa, Liquid | 1009.88
348.16 K, 3142.1 kPa, Liquid | 1010.13
348.16 K, 3154.2 kPa, Liquid | 1010.88
348.16 K, 3176.2 kPa, Liquid | 1012.35
348.16 K, 3202.5 kPa, Liquid | 1013.88
348.16 K, 3223.6 kPa, Liquid | 1015.07
348.16 K, 3244.1 kPa, Liquid | 1016.31
348.16 K, 3266.6 kPa, Liquid | 1017.56
348.16 K, 3287 kPa, Liquid | 1018.73
348.16 K, 3310.2 kPa, Liquid | 1020.02
348.16 K, 3316.2 kPa, Liquid | 1020.28
348.16 K, 3323.1 kPa, Liquid | 1020.54
348.16 K, 3330.6 kPa, Liquid | 1020.95
348.16 K, 3337.3 kPa, Liquid | 1021.47
348.16 K, 3343.7 kPa, Liquid | 1021.72
348.16 K, 3351.1 kPa, Liquid | 1022.04
348.16 K, 3359.3 kPa, Liquid | 1022.61
348.16 K, 3365.4 kPa, Liquid | 1022.8
348.16 K, 3373.8 kPa, Liquid | 1023.35
348.16 K, 3380 kPa, Liquid | 1023.59
348.16 K, 3386.2 kPa, Liquid | 1023.86
348.16 K, 3392.5 kPa, Liquid | 1024.46
348.16 K, 3400.2 kPa, Liquid | 1024.64
348.16 K, 3423.6 kPa, Liquid | 1025.65
